From PMC12196264, “Design and Synthesis of Pyridine-Based Pyrrolo[2,3-d]pyrimidine Analogs as CSF1R Inhibitors: Molecular Hybridization and Scaffold Hopping Approach” (Pharmaceuticals, 2025)

How the values were obtained:
CSF1R [1] = molecular target: T1, CSF1R (Homo sapiens, UniProt P07333); test: CSF1R enzymatic inhibitory assay (TR-FRET LANCE Ultra); type: biochemical; conditions: single eight-point titrations, ATP 25 μM, R^2 of fit in parentheses
Method: The TR-FRET-based LANCE Ultra assay (Perkin Elmer, Waltham, MA, USA) was used to determine IC50 values for various CSF1R inhibitors. Kinase activity and inhibition in this assay was measured as previously reported. Scigilian Analyze software version 5.8.5.15 (Scigilian, Montreal, QC, Canada) was used.

[2] = Microsomal stability, mouse liver microsomes; type: in vitro ADME; conditions: mouse liver microsome
Method: The aqueous solubility of the compounds and metabolic stability under oxidative conditions was performed as described previously.

panel of 50 kinases = test: Kinase panel selectivity; type: biochemical; conditions: 1 μM
Method: To further evaluate potential off-target activity, compound 14c was screened against a panel of 50 kinases at a concentration of 1 μM. […] Inhibitor selectivity can be quantified using the selectivity score (S-score), which assumes that low inhibitory activity is clinically irrelevant. The S-score is calculated by dividing the number of kinases inhibited above a defined threshold by the total number of kinases tested. […] Further details on the selectivity data can be found in SI (Table S1). […]
(§1) Ta b l e S 1. Inhibition (%) by compound 14c towards di7erent kinases. Values are average of two
(§2) measurements at 1000 nM test concentration. The ATP concentration was equal to KM.
(§3) Kinase ATP conc. % inhibition

ABL1 = ABL1 (Homo sapiens, UniProt P00519); test: Kinase panel; type: biochemical
Method: as §1, §2, §3

AKT1 = AKT1 (Homo sapiens, UniProt P31749); test: Kinase panel; type: biochemical
Method: as §1, §2, §3

ALK = ALK (Homo sapiens, UniProt Q9UM73); test: Kinase panel; type: biochemical
Method: as §1, §2, §3

AXL = AXL (Homo sapiens, UniProt P30530); test: Kinase panel; type: biochemical
Method: as §1, §2, §3

Aurora A = Aurora A (Homo sapiens, UniProt O14965); test: Kinase panel; type: biochemical
Method: as §1, §2, §3

BTK = BTK (Homo sapiens, UniProt Q06187); test: Kinase panel; type: biochemical
Method: as §1, §2, §3

CAMK1D = CAMK1D (Homo sapiens, UniProt Q8IU85); test: Kinase panel; type: biochemical
Method: as §1, §2, §3

CDK1 = CDK1 (Homo sapiens, UniProt P06493); test: Kinase panel; type: biochemical
Method: as §1, §2, §3

CHEK1 = CHEK1 (Homo sapiens, UniProt O14757); test: Kinase panel; type: biochemical
Method: as §1, §2, §3

CSF1R [3] = molecular target: T1, CSF1R; test: Kinase panel; type: biochemical
Method: as §1, §2, §3

EPHA2 = EPHA2 (Homo sapiens, UniProt P29317); test: Kinase panel; type: biochemical
Method: as §1, §2, §3

ERBB2 = ERBB2 (Homo sapiens, UniProt P04626); test: Kinase panel; type: biochemical
Method: as §1, §2, §3

FER = FER (Homo sapiens, UniProt P16591); test: Kinase panel; type: biochemical
Method: as §1, §2, §3

FGFR1 = FGFR1 (Homo sapiens, UniProt P11362); test: Kinase panel; type: biochemical
Method: as §1, §2, §3

FLT4 = FLT4 (Homo sapiens, UniProt P35916); test: Kinase panel; type: biochemical
Method: as §1, §2, §3

FRAP1 = FRAP1 (Homo sapiens, UniProt P42345); test: Kinase panel; type: biochemical
Method: as §1, §2, §3

FYN = FYN (Homo sapiens, UniProt P06241); test: Kinase panel; type: biochemical
Method: as §1, §2, §3

HCK = HCK (Homo sapiens, UniProt P08631); test: Kinase panel; type: biochemical
Method: as §1, §2, §3

ITK = ITK (Homo sapiens, UniProt Q08881); test: Kinase panel; type: biochemical
Method: as §1, §2, §3

JAK1 = JAK1 (Homo sapiens, UniProt P23458); test: Kinase panel; type: biochemical
Method: as §1, §2, §3

JAK2 = JAK2 (Homo sapiens, UniProt O60674); test: Kinase panel; type: biochemical
Method: as §1, §2, §3

KIT = KIT (Homo sapiens, UniProt P10721); test: Kinase panel; type: biochemical
Method: as §1, §2, §3

LYN A = LYN A (Homo sapiens, UniProt P07948); test: Kinase panel; type: biochemical
Method: as §1, §2, §3

LYN B = LYN B (Homo sapiens, UniProt P07948); test: Kinase panel; type: biochemical
Method: as §1, §2, §3

MET = MET (Homo sapiens, UniProt P08581); test: Kinase panel; type: biochemical
Method: as §1, §2, §3

MINK1 = MINK1 (Homo sapiens, UniProt Q8N4C8); test: Kinase panel; type: biochemical
Method: as §1, §2, §3

MKNK1 = MKNK1 (Homo sapiens, UniProt Q9BUB5); test: Kinase panel; type: biochemical
Method: as §1, §2, §3

MUSK = MUSK (Homo sapiens, UniProt O15146); test: Kinase panel; type: biochemical
Method: as §1, §2, §3

NEK1 = NEK1 (Homo sapiens, UniProt Q96PY6); test: Kinase panel; type: biochemical
Method: as §1, §2, §3

PAK1 = PAK1 (Homo sapiens, UniProt Q13153); test: Kinase panel; type: biochemical
Method: as §1, §2, §3

PDGFRB = PDGFRB (Homo sapiens, UniProt P09619); test: Kinase panel; type: biochemical; conditions: 1000 nM test concentration, ATP Km app, average of two measurements
Method: as §1, §2, §3

PLK1 = PLK1 (Homo sapiens, UniProt P53350); test: Kinase panel; type: biochemical
Method: as §1, §2, §3

ROCK1 = ROCK1 (Homo sapiens, UniProt Q13464); test: Kinase panel; type: biochemical
Method: as §1, §2, §3

TEK = TEK (Homo sapiens, UniProt Q02763); test: Kinase panel; type: biochemical
Method: as §1, §2, §3

YES1 = YES1 (Homo sapiens, UniProt P07947); test: Kinase panel; type: biochemical
Method: as §1, §2, §3

Chain of PDGFRB (P09619 33-1106, species assumed): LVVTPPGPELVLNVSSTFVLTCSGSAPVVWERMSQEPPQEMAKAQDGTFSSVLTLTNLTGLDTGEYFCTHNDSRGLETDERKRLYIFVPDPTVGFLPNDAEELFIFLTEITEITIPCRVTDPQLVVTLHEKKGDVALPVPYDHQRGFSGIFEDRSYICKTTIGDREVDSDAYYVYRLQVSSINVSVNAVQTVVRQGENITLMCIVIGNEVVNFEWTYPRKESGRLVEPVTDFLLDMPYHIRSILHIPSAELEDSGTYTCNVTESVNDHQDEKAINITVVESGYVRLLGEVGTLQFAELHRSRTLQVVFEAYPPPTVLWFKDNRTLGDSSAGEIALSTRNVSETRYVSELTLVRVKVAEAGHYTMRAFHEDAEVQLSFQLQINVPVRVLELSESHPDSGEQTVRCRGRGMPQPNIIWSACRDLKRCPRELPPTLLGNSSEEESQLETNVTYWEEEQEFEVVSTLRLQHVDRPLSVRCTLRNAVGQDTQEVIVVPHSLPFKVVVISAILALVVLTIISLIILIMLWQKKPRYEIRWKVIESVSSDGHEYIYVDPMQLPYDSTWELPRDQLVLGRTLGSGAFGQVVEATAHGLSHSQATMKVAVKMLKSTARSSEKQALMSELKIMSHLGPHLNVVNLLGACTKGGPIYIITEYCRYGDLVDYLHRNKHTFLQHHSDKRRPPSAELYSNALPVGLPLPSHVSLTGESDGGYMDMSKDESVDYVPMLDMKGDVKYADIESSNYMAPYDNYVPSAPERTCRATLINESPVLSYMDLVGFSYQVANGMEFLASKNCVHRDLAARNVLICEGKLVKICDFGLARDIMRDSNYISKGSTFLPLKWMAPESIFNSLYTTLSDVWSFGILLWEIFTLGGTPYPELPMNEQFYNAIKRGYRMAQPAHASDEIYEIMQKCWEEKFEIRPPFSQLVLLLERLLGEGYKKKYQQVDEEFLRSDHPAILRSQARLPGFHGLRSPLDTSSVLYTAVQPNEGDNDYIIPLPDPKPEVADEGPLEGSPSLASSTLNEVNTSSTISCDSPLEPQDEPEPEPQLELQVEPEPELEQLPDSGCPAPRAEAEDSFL
T1 sequence (P07333 20-972): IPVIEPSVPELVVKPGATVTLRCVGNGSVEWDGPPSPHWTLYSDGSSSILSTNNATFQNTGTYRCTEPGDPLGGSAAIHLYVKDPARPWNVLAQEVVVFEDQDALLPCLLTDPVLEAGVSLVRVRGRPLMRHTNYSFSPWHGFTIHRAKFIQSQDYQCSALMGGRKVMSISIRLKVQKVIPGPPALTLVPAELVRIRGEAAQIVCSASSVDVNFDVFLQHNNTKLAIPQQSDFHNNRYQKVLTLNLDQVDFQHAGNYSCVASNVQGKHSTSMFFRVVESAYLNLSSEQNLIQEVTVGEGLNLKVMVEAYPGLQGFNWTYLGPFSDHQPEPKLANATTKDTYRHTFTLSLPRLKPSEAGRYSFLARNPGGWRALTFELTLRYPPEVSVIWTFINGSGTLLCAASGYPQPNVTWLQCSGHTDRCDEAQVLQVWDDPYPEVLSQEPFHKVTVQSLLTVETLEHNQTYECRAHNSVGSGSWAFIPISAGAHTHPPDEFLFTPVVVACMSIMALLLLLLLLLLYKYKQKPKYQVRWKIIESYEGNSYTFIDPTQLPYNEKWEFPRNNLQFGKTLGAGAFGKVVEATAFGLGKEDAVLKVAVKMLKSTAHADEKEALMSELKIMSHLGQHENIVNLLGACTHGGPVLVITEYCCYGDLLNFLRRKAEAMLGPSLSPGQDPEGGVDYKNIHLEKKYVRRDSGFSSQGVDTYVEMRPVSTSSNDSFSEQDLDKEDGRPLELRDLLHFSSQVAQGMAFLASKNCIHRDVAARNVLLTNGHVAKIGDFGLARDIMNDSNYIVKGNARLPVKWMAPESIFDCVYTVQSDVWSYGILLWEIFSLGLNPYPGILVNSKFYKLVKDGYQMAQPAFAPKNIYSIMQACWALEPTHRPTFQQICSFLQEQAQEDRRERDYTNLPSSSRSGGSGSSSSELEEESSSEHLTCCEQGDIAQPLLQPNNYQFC
Chain of ERBB2 (P04626 23-1255, species assumed): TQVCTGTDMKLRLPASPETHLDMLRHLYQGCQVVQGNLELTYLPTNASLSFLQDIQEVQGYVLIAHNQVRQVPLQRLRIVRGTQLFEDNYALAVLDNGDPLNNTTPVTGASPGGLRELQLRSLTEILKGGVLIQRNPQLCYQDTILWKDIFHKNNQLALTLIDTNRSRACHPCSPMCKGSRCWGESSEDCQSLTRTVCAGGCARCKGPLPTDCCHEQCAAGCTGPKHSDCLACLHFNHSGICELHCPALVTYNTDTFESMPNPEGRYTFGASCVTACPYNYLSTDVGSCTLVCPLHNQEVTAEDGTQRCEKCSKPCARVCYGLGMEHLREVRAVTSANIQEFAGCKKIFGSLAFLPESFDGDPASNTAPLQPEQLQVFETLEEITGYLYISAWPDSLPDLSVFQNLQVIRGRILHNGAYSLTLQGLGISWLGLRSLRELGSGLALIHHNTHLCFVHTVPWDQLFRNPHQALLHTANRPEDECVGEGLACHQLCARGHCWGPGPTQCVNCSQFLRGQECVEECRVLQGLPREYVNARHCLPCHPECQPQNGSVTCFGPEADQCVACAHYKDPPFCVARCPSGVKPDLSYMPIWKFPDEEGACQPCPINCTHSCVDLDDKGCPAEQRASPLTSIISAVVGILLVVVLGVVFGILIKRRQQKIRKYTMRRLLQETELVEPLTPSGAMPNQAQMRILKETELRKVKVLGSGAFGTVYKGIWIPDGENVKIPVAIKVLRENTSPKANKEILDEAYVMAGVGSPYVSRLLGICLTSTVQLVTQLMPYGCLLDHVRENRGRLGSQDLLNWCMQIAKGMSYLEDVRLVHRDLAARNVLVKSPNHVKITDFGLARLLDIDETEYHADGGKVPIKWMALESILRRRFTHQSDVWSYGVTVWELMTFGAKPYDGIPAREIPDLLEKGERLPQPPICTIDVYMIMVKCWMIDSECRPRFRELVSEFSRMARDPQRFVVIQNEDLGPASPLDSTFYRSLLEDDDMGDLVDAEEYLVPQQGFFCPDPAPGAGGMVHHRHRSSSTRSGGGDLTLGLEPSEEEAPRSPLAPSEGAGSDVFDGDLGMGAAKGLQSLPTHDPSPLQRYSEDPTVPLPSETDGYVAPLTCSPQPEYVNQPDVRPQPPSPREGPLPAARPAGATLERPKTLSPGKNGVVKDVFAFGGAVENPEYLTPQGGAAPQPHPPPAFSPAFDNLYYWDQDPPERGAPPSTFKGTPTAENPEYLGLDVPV
Chain of MUSK (O15146 24-869, species assumed): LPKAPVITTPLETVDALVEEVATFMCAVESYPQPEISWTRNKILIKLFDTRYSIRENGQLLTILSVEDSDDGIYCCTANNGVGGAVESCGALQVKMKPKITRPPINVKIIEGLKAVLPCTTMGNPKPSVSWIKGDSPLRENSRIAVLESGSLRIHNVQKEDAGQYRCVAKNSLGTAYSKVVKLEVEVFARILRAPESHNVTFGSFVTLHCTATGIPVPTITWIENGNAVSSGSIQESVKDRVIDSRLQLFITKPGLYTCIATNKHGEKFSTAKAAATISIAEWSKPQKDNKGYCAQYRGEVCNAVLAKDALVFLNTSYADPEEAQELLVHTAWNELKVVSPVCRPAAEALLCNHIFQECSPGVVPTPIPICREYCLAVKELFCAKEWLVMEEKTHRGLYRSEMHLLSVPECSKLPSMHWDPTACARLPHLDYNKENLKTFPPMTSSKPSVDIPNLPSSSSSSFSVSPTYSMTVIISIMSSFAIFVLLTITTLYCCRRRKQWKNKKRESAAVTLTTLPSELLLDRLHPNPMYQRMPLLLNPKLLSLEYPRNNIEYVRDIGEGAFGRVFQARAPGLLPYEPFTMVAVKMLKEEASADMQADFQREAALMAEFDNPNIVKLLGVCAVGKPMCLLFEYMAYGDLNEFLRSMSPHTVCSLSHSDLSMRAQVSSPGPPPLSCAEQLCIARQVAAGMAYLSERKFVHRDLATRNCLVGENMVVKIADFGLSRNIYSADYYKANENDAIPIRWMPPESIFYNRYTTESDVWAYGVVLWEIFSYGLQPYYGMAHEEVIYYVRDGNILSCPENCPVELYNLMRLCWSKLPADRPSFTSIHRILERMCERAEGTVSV
Chain of AKT1 (P31749 whole entry, species assumed): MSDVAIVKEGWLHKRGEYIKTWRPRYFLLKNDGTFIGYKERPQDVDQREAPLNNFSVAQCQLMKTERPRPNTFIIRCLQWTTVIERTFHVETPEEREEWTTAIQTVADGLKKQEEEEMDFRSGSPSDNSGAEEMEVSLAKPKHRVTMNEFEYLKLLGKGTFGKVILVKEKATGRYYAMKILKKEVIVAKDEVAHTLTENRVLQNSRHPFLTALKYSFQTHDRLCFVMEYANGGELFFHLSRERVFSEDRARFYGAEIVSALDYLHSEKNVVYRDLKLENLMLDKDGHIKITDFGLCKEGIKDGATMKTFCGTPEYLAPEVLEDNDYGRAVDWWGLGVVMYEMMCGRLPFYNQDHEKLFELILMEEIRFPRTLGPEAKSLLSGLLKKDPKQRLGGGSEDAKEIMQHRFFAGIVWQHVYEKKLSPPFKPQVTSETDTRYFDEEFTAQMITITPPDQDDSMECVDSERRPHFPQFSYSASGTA
Chain of MKNK1 (Q9BUB5 whole entry, species assumed): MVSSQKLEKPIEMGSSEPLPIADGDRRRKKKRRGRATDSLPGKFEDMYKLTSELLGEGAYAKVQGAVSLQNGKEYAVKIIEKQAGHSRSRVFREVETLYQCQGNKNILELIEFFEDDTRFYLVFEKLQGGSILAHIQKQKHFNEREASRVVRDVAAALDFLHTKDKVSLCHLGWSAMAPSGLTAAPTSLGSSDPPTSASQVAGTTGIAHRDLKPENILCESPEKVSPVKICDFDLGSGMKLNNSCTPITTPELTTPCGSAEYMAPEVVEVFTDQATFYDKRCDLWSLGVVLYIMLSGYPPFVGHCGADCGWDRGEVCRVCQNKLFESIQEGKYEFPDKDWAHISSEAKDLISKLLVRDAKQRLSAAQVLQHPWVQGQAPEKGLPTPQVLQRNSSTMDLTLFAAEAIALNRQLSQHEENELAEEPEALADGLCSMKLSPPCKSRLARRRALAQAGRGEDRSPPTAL

## Cc1cccc(CN(C)c2ncnc3[nH]c(-c4ccc(NCc5ccc(C(F)(F)F)nc5)nc4)cc23)c1 [Compound 14c, N-Methyl-N-(3-methylbenzyl)-6-(6-(((6-(trifluoromethyl)pyridin-3-yl)methyl)amino)pyridin-3-yl)-7H-pyrrolo[2,3-d]pyrimidin-4-amine]
CSF1R [1]
  IC50: 7.18 nM
[2]
  MLM in vitro intrinsic clearing: 60.5 µL/min/mg
Panel of 50 kinases
  Selectivity towards CSF1R in kinase panel (in words): high selectivity
ABL1
  inhibition at 1 µM: 71%
AKT1
  inhibition at 1 µM: 2%
ALK
  inhibition at 1 µM: 11%
AXL
  inhibition at 1 µM: 4%
Aurora A
  inhibition at 1 µM: 7%
BTK
  inhibition at 1 µM: 13%
CAMK1D
  inhibition at 1 µM: 8%
CDK1
  inhibition at 1 µM: 12%
CHEK1
  inhibition at 1 µM: 11%
CSF1R [3]
  inhibition at 1 µM: 95%
EPHA2
  inhibition at 1 µM: 23%
ERBB2
  inhibition at 1 µM: 9%
FER
  inhibition at 1 µM: 6%
FGFR1
  inhibition at 1 µM: 3%
FLT4
  inhibition at 1 µM: 2%
FRAP1
  inhibition at 1 µM: -5%
FYN
  inhibition at 1 µM: 16%
HCK
  inhibition at 1 µM: 16%
ITK
  inhibition at 1 µM: 8%
JAK1
  inhibition at 1 µM: -5%
JAK2
  inhibition at 1 µM: 4%
KIT
  inhibition at 1 µM: 18%
LYN A
  inhibition at 1 µM: 18%
LYN B
  inhibition at 1 µM: 26%
MET
  inhibition at 1 µM: 10%
MINK1
  inhibition at 1 µM: 69%
MKNK1
  inhibition at 1 µM: 1%
MUSK
  inhibition at 1 µM: 19%
NEK1
  inhibition at 1 µM: 16%
PAK1
  inhibition at 1 µM: 9%
PDGFRB
  inhibition at 1 µM: 9%
PDGFRB; 1 µM
  % inhibition PDGFRB: 8%
PLK1
  inhibition at 1 µM: 7%
ROCK1
  inhibition at 1 µM: -1%
TEK
  inhibition at 1 µM: 8%
YES1
  inhibition at 1 µM: 65%
